Test results published in patent US20220081415A1, “Amino Acid Derivatives for the Treatment of Inflammatory Diseases” (The Roskamp Institute, priority 2019, published 2022).
Structures can show the parent of a compound that is named as a salt.

system: NF-kB activation induced by TNFα; assay: TNFα Luciferase assay: inhibition of NF-kB activation induced by TNFα in HEK293/NF-kB luciferase cells; assay type: cell-based; conditions: Homo sapiens, 4 h, 25 ng/ml of TNF-α for four hours, quadruplicate, read-out: IC50, concentration at which NF-kB activation was reduced by 50%
Method: Determination of Inhibition of NF-kB Activation Induced by TNFα . . . In Vitro Assay
The ability of a compound disclosed herein to inhibit NFkB activation induced by TNFα was determined using the TNFα Luciferase assay. The HEK293/NF-kB luciferase cell line was obtained by cotransfection of pNFkB-luc vector with pHyg (Panomics, CA, USA) followed by hygromycin selection. HEK293/NFkB Luciferase cells were grown in DMEM medium supplemented with 10% fetal bovine serum, 100 U/ml of penicillin, 100 ng/ml of streptomycin/Fungizone, and 100 μg/ml of hygromycin B as the selecting agent. HEK293 NFkB Luciferase cells were grown in T75 flasks (Nunc™ Cell Culture Treated EasYFlasks™) in a cell culture incubator at 37° C. and 5% CO2.
Confluent T75 cell culture flasks (approximately 8-10 million of cells per flask) were washed with 10 ml of sterile PBS (without calcium and magnesium) under a biosafety cabinet. After aspiration of the PBS with a sterile glass pipette, the layer of cells (for each T75 flask) was covered with 1 ml of TrypLE™ Express without phenol red (Gibco) at room temperature. After one minute of incubation, HEK293 were mechanically resuspended in the TrypLE by tapping the side of the flask. The cells were then resuspended with 10 ml of pre-warmed complete culture medium and transferred to a conical tube. Cells were centrifuged for 5 minutes at 4000 rpm (1000 g) at room temperature. The cellular pellet was resuspended with 24 ml of pre-warmed cell culture media and […] of cell suspension (approximately 80,000 cells per well) was plated per well in 96-well cell culture plates (Costar #3599, Corning, N.Y., USA) using a multichannel pipette and reversed pipetting to prevent air bubble formation. After plating, the cells were maintained overnight in the cell culture incubator before being treated. For each 96 well cell culture plate, 8 wells were used as “control wells” (only culture medium added) and to 8 wells only TNFα was added. The NF-kB Luciferase reporter cell line was challenged with 25 ng/ml of TNF-α for four hours in the presence and absence (control conditions) of a dose range of the different compounds to be tested. For each compound, a dose range of concentrations was tested in quadruplicate and used to determine an IC50.
Luciferase activity was monitored using the Luc-Screen® Extended-Glow Luciferase Reporter Gene Assay System by chemoluminescence according to the instruction of the manufacturer (Invitrogen) and a BioTek Synergy HT plate reader (BioTek Instruments, VT, USA).

IC50	SMILES
58.5 nM	O=C(N[C@@H](Cc1ccccc1)C(=O)N1CC=CCC1c1cccnc1)c1cccc(NC(=O)C2CCCC2)c1 (stereo partly drawn) [Compound 46, 3-(cyclopentanecarboxamido)-N-((2S)-1-oxo-3-phenyl-1-(6-(pyridin-3-yl)-5,6-dihydropyridin-1(2H)-yl)propan-2-yl)benzamide]
80.2 nM	O=C(N[C@@H](Cc1ccccc1)C(=O)N1CC=CCC1c1cccnc1)c1cccc(NC(=O)C2CC2)c1 (stereo partly drawn) [Compound 44, 3-(cyclopropanecarboxamido)-N-((2S)-1-oxo-3-phenyl-1-(6-(pyridin-3-yl)-5,6-dihydropyridin-1(2H)-yl)propan-2-yl)benzamide]
4500 nM	COc1ccc(C(=O)NC(Cc2ccccc2)C(=O)N2CC=CCC2c2cccnc2)cc1OC (centres unmarked) [Compound 21, 3,4-dimethoxy-N-(1-oxo-3-phenyl-1-(6-(pyridin-3-yl)-5,6-dihydropyridin-1(2H)-yl)propan-2-yl)benzamide]
4300 nM	COc1cc(Cl)ccc1C(=O)N[C@H](Cc1ccccc1)C(=O)N1CC=CCC1c1cccnc1 (stereo partly drawn) [Compound 30, 4-chloro-2-methoxy-N-((2R)-1-oxo-3-phenyl-1-(6-(pyridin-3-yl)-5,6-dihydropyridin-1(2H)-yl)propan-2-yl)benzamide]
704 nM	CCCC(=O)Nc1cccc(C(=O)N[C@@H](Cc2ccc3ccccc3c2)C(=O)N2CC=CCC2c2cccnc2)c1 (stereo partly drawn) [Compound 65, 3-butyramido-N-((2S)-3-(naphthalen-2-yl)-1-oxo-1-(6-(pyridin-3-yl)-5,6-dihydropyridin-1(2H)-yl)propan-2-yl)benzamide]
8000 nM	COc1ccc(C)c(C(=O)N[C@H](Cc2ccccc2)C(=O)N2CC=CCC2c2cccnc2)c1 (stereo partly drawn) [Compound 29, 5-methoxy-2-methyl-N-((2R)-1-oxo-3-phenyl-1-(6-(pyridin-3-yl)-5,6-dihydropyridin-1(2H)-yl)propan-2-yl)benzamide]
131 nM	O=C(N[C@@H](Cc1ccccc1)C(=O)N1CC=CCC1c1cccnc1)c1cnccn1 (stereo partly drawn) [Compound 50, N-((2S)-1-oxo-3-phenyl-1-(6-(pyridin-3-yl)-5,6-dihydropyridin-1(2H)-yl)propan-2-yl)pyrazine-2-carboxamide]
134 nM	O=C(N[C@@H](Cc1ccccc1)C(=O)N1CC=CCC1c1cccnc1)c1ccco1 (stereo partly drawn) [Compound 52, N-((2S)-1-oxo-3-phenyl-1-(6-(pyridin-3-yl)-5,6-dihydropyridin-1(2H)-yl)propan-2-yl)furan-2-carboxamide]
346 nM	CCCC(=O)Nc1cccc(C(=O)N[C@@H](CC2CCCCC2)C(=O)N2CC=CCC2c2cccnc2)c1 (stereo partly drawn) [Compound 66, 3-butyramido-N-((2S)-3-cyclohexyl-1-oxo-1-(6-(pyridin-3-yl)-5,6-dihydropyridin-1(2H)-yl)propan-2-yl)benzamide]
550000 nM	CC(C)[C@@H](C(=O)N1CC=CC[C@@H]1c1cccnc1)N1C(=O)c2ccccc2C1=O (single isomer, unassigned) [Compound 4]
86.9 nM	CC(C)CC(=O)Nc1cccc(C(=O)N[C@@H](Cc2ccccc2)C(=O)N2CC=CCC2c2cccnc2)c1 (stereo partly drawn) [Compound 42, 3-(3-methylbutanamido)-N-((2S)-1-oxo-3-phenyl-1-(6-(pyridin-3-yl)-5,6-dihydropyridin-1(2H)-yl)propan-2-yl)benzamide]
125000 nM	COc1cccc(C(=O)N[C@@H](C)C(=O)N2CC=CCC2c2cccnc2)c1 (stereo partly drawn) [Compound 10, 3-methoxy-N-((2S)-1-oxo-1-(6-(pyridin-3-yl)-5,6-dihydropyridin-1(2H)-yl)propan-2-yl)benzamide]
6500 nM	COc1cc(OC)cc(C(=O)N[C@H](Cc2ccccc2)C(=O)N2CC=CCC2c2cccnc2)c1 (stereo partly drawn) [Compound 28, 3,5-dimethoxy-N-((2R)-1-oxo-3-phenyl-1-(6-(pyridin-3-yl)-5,6-dihydropyridin-1(2H)-yl)propan-2-yl)benzamide]
159 nM	CCCC(=O)Nc1ccccc1C(=O)N[C@@H](Cc1ccccc1)C(=O)N1CC=CCC1c1cccnc1 (stereo partly drawn) [Compound 47, 2-butyramido-N-((2S)-1-oxo-3-phenyl-1-(6-(pyridin-3-yl)-5,6-dihydropyridin-1(2H)-yl)propan-2-yl)benzamide]
968 nM	O=C(N[C@@H](Cc1ccccc1)C(=O)N1CC=CCC1c1cccnc1)c1ccc[nH]1 (stereo partly drawn) [Compound 56, N-((2S)-1-oxo-3-phenyl-1-(6-(pyridin-3-yl)-5,6-dihydropyridin-1(2H)-yl)propan-2-yl)-1H-pyrrole-2-carboxamide]
1700 nM	CCCC(=O)Nc1cccc(C(=O)NC(Cc2ccccc2)C(=O)N2CC=CCC2c2cc3ccccc3nc2Cl)c1 (centres unmarked) [Compound 67, 3-butyramido-N-(1-(2-(2-chloroquinolin-3-yl)-3,6-dihydropyridin-1(2H)-yl)-1-oxo-3-phenylpropan-2-yl)benzamide]
4000 nM	COc1ccc(Cl)c(C(=O)N[C@H](Cc2ccccc2)C(=O)N2CC=CCC2c2cccnc2)c1 (stereo partly drawn) [Compound 27, 2-chloro-5-methoxy-N-((2R)-1-oxo-3-phenyl-1-(6-(pyridin-3-yl)-5,6-dihydropyridin-1(2H)-yl)propan-2-yl)benzamide]
170 nM	NCCCC(=O)Nc1cccc(C(=O)N[C@@H](Cc2ccccc2)C(=O)N2CC=CCC2c2cccnc2)c1 (stereo partly drawn) [Compound 55, 3-(4-aminobutanamido)-N-((2S)-1-oxo-3-phenyl-1-(6-(pyridin-3-yl)-5,6-dihydropyridin-1(2H)-yl)propan-2-yl)benzamide hydrochloride]
129 nM	CC(C)(C)C(=O)Nc1cccc(C(=O)N[C@@H](Cc2ccccc2)C(=O)N2CC=CCC2c2cccnc2)c1 (stereo partly drawn) [Compound 43, N-((2S)-1-oxo-3-phenyl-1-(6-(pyridin-3-yl)-5,6-dihydropyridin-1(2H)-yl)propan-2-yl)-3-pivalamidobenzamide]
58.4 nM	CCCC(=O)Nc1cccc(C(=O)N[C@@H](Cc2ccccc2)C(=O)N2CCCCC2c2cccnc2)c1 (stereo partly drawn) [Compound 63, 3-butyramido-N-((2S)-1-oxo-3-phenyl-1-(2-(pyridin-3-yl)piperidin-1-yl)propan-2-yl)benzamide]
75.4 nM	O=C(N[C@@H](Cc1ccccc1)C(=O)N1CC=CCC1c1cccnc1)c1cccc(NC(=O)C2CCC2)c1 (stereo partly drawn) [Compound 45, 3-(cyclobutanecarboxamido)-N-((2S)-1-oxo-3-phenyl-1-(6-(pyridin-3-yl)-5,6-dihydropyridin-1(2H)-yl)propan-2-yl)benzamide]
210 nM	CC(=O)Nc1cccc(C(=O)NC(Cc2ccccc2)C(=O)N2CC=CCC2c2cccnc2)c1 (centres unmarked) [Compound 39, 3-acetamido-N-(1-oxo-3-phenyl-1-(6-(pyridin-3-yl)-5,6-dihydropyridin-1(2H)-yl)propan-2-yl)benzamide]
250 nM	Nc1cccc(C(=O)NC(Cc2ccccc2)C(=O)N2CC=CCC2c2cccnc2)c1 (centres unmarked) [Compound 38, 3-amino-N-(1-oxo-3-phenyl-1-(6-(pyridin-3-yl)-5,6-dihydropyridin-1(2H)-yl)propan-2-yl)benzamide]
225000 nM	O=C(C(Cc1ccccc1)N1C(=O)c2ccccc2C1=O)N1CC=CCC1c1cccnc1 (centres unmarked) [Compound 7, 2-(1-oxo-3-phenyl-1-(6-(pyridin-3-yl)-5,6-dihydropyridin-1(2H)-yl)propan-2-yl)isoindoline-1,3-dione]
4300 nM	O=C(NC(Cc1ccccc1)C(=O)N1CC=CCC1c1cccnc1)c1cccc([N+](=O)[O-])c1 (centres unmarked) [Compound 15, 3-nitro-N-(1-oxo-3-phenyl-1-(6-(pyridin-3-yl)-5,6-dihydropyridin-1(2H)-yl)propan-2-yl)benzamide]
375000 nM	C[C@@H](C(=O)N1CC=CCC1c1cccnc1)N1C(=O)c2ccccc2C1=O (stereo partly drawn) [Compound 1, 2-((2S)-1-oxo-1-(6-(pyridin-3-yl)-5,6-dihydropyridin-1(2H)-yl)propan-2-yl)isoindoline-1,3-dione]
550000 nM	O=C1c2ccccc2C(=O)N1CC(=O)N1CC=CCC1c1cccnc1 (centres unmarked) [Compound 8, 2-(2-oxo-2-(6-(pyridin-3-yl)-5,6-dihydropyridin-1(2H)-yl)ethyl)isoindoline-1,3-dione]
1700 nM	COc1cc(C(=O)N[C@H](Cc2ccccc2)C(=O)N2CC=CCC2c2cccnc2)ccc1F (stereo partly drawn) [Compound 31, 4-fluoro-3-methoxy-N-((2R)-1-oxo-3-phenyl-1-(6-(pyridin-3-yl)-5,6-dihydropyridin-1(2H)-yl)propan-2-yl)benzamide]
6500 nM	O=C(NC(Cc1ccccc1)C(=O)N1CC=CCC1c1cccnc1)c1cccc(C(F)(F)F)c1 (centres unmarked) [Compound 23, N-(1-oxo-3-phenyl-1-(6-(pyridin-3-yl)-5,6-dihydropyridin-1(2H)-yl)propan-2-yl)-3-(trifluoromethyl)benzamide]
